Reference: PMC7203576 (Frontiers in Microbiology, 2020)
Where “and” joins values, the source holds several entries; their conditions need not be identical. Equal entries are not always repeated. Where two headings read alike, the source gives them in different places. Marks after values point to notes of the source that are not given here. Residues, ends and D or L forms follow the SMILES beside them. *: point of attachment. Tridecanoyl(3R-OH,11-Me) = CCC(C)CCCCCCC[C@@H](O)CC(=O)*

Legend:
[1] = test system: Magnaporthe oryzae Triticum (MoT) isolate BTJP 4 (5)
[2] = test system: Magnaporthe oryzae Triticum (MoT) conidia; settings: 50 μg/ml
[3] = test system: Magnaporthe oryzae Triticum (MoT) on detached wheat leaves cv. BARI Gom 24 (Prodip); settings: in vivo

CC(=O)c1c(O)c(C(C)=O)c(O)c(C(C)=O)c1O [2,4,6-Triacetylphloroglucinol (TAPG 3), 2,4,6-Triacetylphloroglucinol, reference compound]
Activity against MoT [1]: Inactive

CC(=O)c1c(O)cc(O)c(C(C)=O)c1O [2,4-Diacetylphloroglucinol (DAPG), 2,4-Diacetylphloroglucinol, reference compound]
Activity against MoT [1]: Inactive

CCCc1c(O)cc(O)c(CCC)c1O [2,4-Dipropylphloroglucinol (DPPG), 2,4-Dipropylphloroglucinol, reference compound]
Activity against MoT [1]: Inactive

CCCCCCCC/C=C\CCCCCCCc1cc(O)c(C)c(O)c1 [2-Methyl-5-(8Z-heptadecenyl) resorcinol, reference compound]
Activity against MoT [1]: Inactive

CCCCCCCC/C=C\CCCCCCCc1cc(O)cc(O)c1 [5-(8Z-Heptadecenyl) resorcinol, reference compound]
Activity against MoT [1]: Inactive

CCCCCC[C@H]1C(=O)O[C@H](C)[C@H](NC(=O)c2cccc(NC=O)c2O)C(=O)O[C@@H](C)[C@@H]1OC(=O)CC(C)C [Antimycin-A, reference compound]
Activity against MoT [1]: Active

COC1=CC(=O)C(O)=C(CCCCCCC/C=C\CCCCCCCC2=C(O)C(=O)C=C(OC)C2=O)C1=O [Ardisiaquinone A, reference compound]
Activity against MoT [1]: Inactive

CCC(O)CC1CCC(C(C)C(=O)OC(C)CC2CCC(C(C)C(=O)O)O2)O1 (stereo not drawn) [Bonactin, reference compound]
Activity against MoT [1]: Active

COc1ccc2c(c[n+](C)c3c4cc5c(cc4ccc23)OCO5)c1OC [Chelerythrine chloride, reference compound]
Activity against MoT [1]: Active

CC[C@@H](O)C[C@@H]1CC[C@@H](O)[C@@H](C)C(=O)O[C@@H](C)C[C@H]2CC[C@H](O2)[C@H](C)C(=O)O1 [Feigrisolide C, reference compound]
Activity against MoT [1]: Active

CCC(C)CCCCCCC[C@@H](O)CC(=O)N[C@@H](CC(C)C)C(=O)N[C@@H](CCC(=O)O)C(=O)N[C@@H](CC(C)C)C(=O)N[C@@H](CC(C)C)C(=O)O (stereo partly drawn) [Gageopeptide A] ({Tridecanoyl(3R-OH,11-Me)}-LELL-OH)
Activity against MoT [1]: Active | Minimum inhibitory concentration (MIC) on mycelial growth [1]: 10.0 μg/disk and 10 μg/disk | Morphology of treated hyphae (microscopy) [1]: remarkable increase in branch frequency per unit length of hyphae, reduced polar growth, and irregular swelling of the hyphal tips | Mycelial growth inhibition at the MIC [1]: 12.5 ± 1.8% | Percent inhibition of radial growth (PIRG) of mycelia [1]: 50.5 ± 0.9% | Germinated conidia (% ± SE) ([2]; 0 h): 0 ± 0^f % | Major morphological change/developmental transitions in the treated conidia ([2]; 0 h): No germination | Major morphological change/developmental transitions in the treated conidia ([2]; 6 h): Germinated with a short germ tube | Major morphological change/developmental transitions in the treated conidia ([2]; 12 h): Normal germ tube | Major morphological change/developmental transitions in the treated conidia ([2]; 24 h): Normal appressoria formed; no mycelial growth took place | Conidia with normal germ tube ([2]; after 12 h): 31 ± 1.7% | Conidia producing normal appressoria ([2]; after 24 h): 27 ± 1.5% | Inhibition of mycelial growth from germinated conidia ([2]; 24 h): 100% | Average lesion length of wheat blast on detached leaves [3]: 1.5 ± 0.2 mm

C[C@@H]1CCC/C=C/C=C/[C@H](O)C[C@@H](O)C/C=C\C=C\[C@@H](O)C/C=C/C=C\C(=O)O1 [Macrolactin A, reference compound]
Activity against MoT [1]: Inactive

C[C@H]1CCC/C=C\C=C\[C@H](O)C[C@@H](O)C/C=C\C=C\[C@@H](OC(=O)CCC(=O)O[C@H]2O[C@@H](CO)[C@H](O)[C@@H](O)[C@@H]2O)C/C=C/C=C\C(=O)O1 [Macrolactin W, reference compound]
Activity against MoT [1]: Inactive

CC(=O)c1c(O)cc(O)cc1O [Monoacetylphloroglucinol (MAPG), Monoacetylphloroglucinol, reference compound]
Activity against MoT [1]: Inactive

C[C@@H]1C/C=C/C=C/C=C/C=C/[C@H](O[C@@H]2O[C@H](C)[C@@H](O)[C@H](N)[C@@H]2O)C[C@@H]2O[C@](O)(C[C@@H](O)C[C@H]3O[C@@H]3/C=C/C(=O)O1)C[C@H](O)[C@H]2C(=O)O [Natamycin, reference compound]
Activity against MoT [1]: Inactive

CC[C@H]1/C=C/C=C/C[C@@H](C)[C@H](O)[C@@](C)(O)C(=O)[C@@H](C)[C@H](O)[C@@H](C)C(=O)[C@@H](C)[C@H](O)[C@@H](C)/C=C/C(=O)O[C@@H]2[C@H](C)[C@H](CC1)O[C@@]1(O[C@@H](C[C@@H](C)O)[C@@H](C)CC1=O)[C@H]2C [Oligomycin B, reference compound]
Activity against MoT [1]: Active

CC1(C)S[C@@H]2[C@H](NC(=O)Cc3ccccc3)C(=O)N2[C@H]1C(=O)O [Penicillin G, reference compound]
Activity against MoT [1]: Inactive

Oc1cc(O)cc(O)c1 [Phloroglucinol (PG), Phloroglucinol, reference compound]
Activity against MoT [1]: Inactive

CN[C@@H]1C[C@H]2O[C@@](C)([C@@H]1OC)n1c3ccccc3c3c4c(c5c6ccccc6n2c5c31)C(=O)NC4 [Staurosporine, reference compound]
Activity against MoT [1]: Active

Gageopeptide B
Activity against MoT [1]: Active | Minimum inhibitory concentration (MIC) on mycelial growth [1]: 10.0 μg/disk and 10 μg/disk | Morphology of treated hyphae (microscopy) [1]: swelling of hyphal cells, hyper-branching, loss of apical growth, and swelling of hyphal tips | Mycelial growth inhibition at the MIC [1]: 11.5 ± 1.6% | Percent inhibition of radial growth (PIRG) of mycelia [1]: 54.3 ± 3.3% | Germinated conidia (% ± SE) ([2]; 0 h): 0 ± 0^f % | Major morphological change/developmental transitions in the treated conidia ([2]; 0 h): No germination | Major morphological change/developmental transitions in the treated conidia ([2]; 6 h): Germinated with a short germ tube | Major morphological change/developmental transitions in the treated conidia ([2]; 12 h): Deformed germ tube (swollen) | Major morphological change/developmental transitions in the treated conidia ([2]; 24 h): No appressoria formed; no mycelial growth took place | Conidia with abnormally swollen (deformed) germ tubes ([2]; after 12 h): 51 ± 2.1% | Average lesion length of wheat blast on detached leaves [3]: 1.6 ± 0.2 mm

Gageopeptide C
Activity against MoT [1]: Active | Minimum inhibitory concentration (MIC) on mycelial growth [1]: 2.5 μg/disk | Morphology of treated hyphae (microscopy) [1]: extensive branching, irregular growth, and swelling in MoT hyphae | Mycelial growth inhibition at the MIC [1]: 42.9 ± 1.6% | Percent inhibition of radial growth (PIRG) of mycelia [1]: 58.1 ± 0.9% and 54.3 ± 1.6% and 49.5 ± 0.9% | Germinated conidia (% ± SE) ([2]; 0 h): 0 ± 0^f % | Major morphological change/developmental transitions in the treated conidia ([2]; 0 h): No germination | Major morphological change/developmental transitions in the treated conidia ([2]; 6 h): Germinated with a short germ tube | Major morphological change/developmental transitions in the treated conidia ([2]; 12 h): Deformed germ tube (swollen) | Major morphological change/developmental transitions in the treated conidia ([2]; 24 h): 30% Normal appressoria and 11% abnormal appressoria (low melanization) formed but no mycelial growth took place | Conidia with abnormally swollen (deformed) germ tubes ([2]; after 12 h): 10 ± 1.5% | Conidia producing abnormal appressoria (low melanization) ([2]; after 24 h): 11 ± 0.7% and 11% | Conidia producing normal appressoria ([2]; after 24 h): 30 ± 0.7% and 30% | Average lesion length of wheat blast on detached leaves [3]: 1.8 ± 0.1 mm

Gageopeptide D
Activity against MoT [1]: Active | Minimum inhibitory concentration (MIC) on mycelial growth [1]: 2.5 μg/disk | Morphology of treated hyphae (microscopy) [1]: disruption of normal polar growth of hyphae by inducing excessive branching and swelling of hyphal tips | Mycelial growth inhibition at the MIC [1]: 20 ± 1.7% | Percent inhibition of radial growth (PIRG) of mycelia [1]: 45.7 ± 1.6% and 30.5 ± 0.9% and 27.6 ± 0.9% | Germinated conidia (% ± SE) ([2]; 0 h): 0 ± 0^f % | Major morphological change/developmental transitions in the treated conidia ([2]; 0 h): No germination | Major morphological change/developmental transitions in the treated conidia ([2]; 6 h): Germinated with a short germ tube | Major morphological change/developmental transitions in the treated conidia ([2]; 12 h): Deformed germ tube (swollen) | Major morphological change/developmental transitions in the treated conidia ([2]; 24 h): No appressoria formed; no mycelial growth took place | Conidia with abnormally swollen (deformed) germ tubes ([2]; after 12 h): 25 ± 1.7% | Average lesion length of wheat blast on detached leaves [3]: 1.8 ± 0.1 mm

Gageostatin A [reference compound]
Activity against MoT [1]: Inactive

Gageostatin B [reference compound]
Activity against MoT [1]: Inactive

Gageostatin C [reference compound]
Activity against MoT [1]: Inactive

Gageotetrin A [reference compound]
Activity against MoT [1]: Inactive

Gageotetrin B
Activity against MoT [1]: Active | Minimum inhibitory concentration (MIC) on mycelial growth [1]: 1.5 μg/disk | Morphology of treated hyphae (microscopy) [1]: coarse, loss of radial growth, and irregular swelling on the tips | Mycelial growth inhibition at the MIC [1]: 22.9 ± 1.6% | Percent inhibition of radial growth (PIRG) of mycelia [1]: 60.9 ± 2.5% and 59 ± 0.9% and 51.4 ± 1.7% | Germinated conidia (% ± SE) ([2]; 0 h): 0 ± 0^f % | Major morphological change/developmental transitions in the treated conidia ([2]; 0 h): No germination | Major morphological change/developmental transitions in the treated conidia ([2]; 6 h): Germinated with a short germ tube | Major morphological change/developmental transitions in the treated conidia ([2]; 12 h): Deformed germ tube (swollen) | Major morphological change/developmental transitions in the treated conidia ([2]; 24 h): Abnormal appressoria formed; no mycelial growth took place | Conidia with abnormally swollen (deformed) germ tubes ([2]; after 12 h): 41 ± 3.8% | Average lesion length of wheat blast on detached leaves [3]: 1.5 ± 0.1 mm

Gageotetrin C [reference compound]
Activity against MoT [1]: Inactive

Macrolactin B [reference compound]
Activity against MoT [1]: Active

Neomycin [reference compound]
Activity against MoT [1]: Active

Oligomycin F [reference compound]
Activity against MoT [1]: Active
